The values that follow come from US9006194B2, “Compositions and methods for diminishing viral infection and inflammation associated with viral infection” (Drexel University, priority 2008, dated 2015).

In the experiment the test system is CD4+ and CD8+ T cells. Put plainly: Apoptosis assay of primary human CD4+ and CD8+ T lymphocytes exposed to Type 1 interferon (CD95/Fas-induced, Annexin V). The conditions noted are these: 5 ng/mL for 72 hours, resting or anti-CD3 activated T cells, n=5 healthy donors.

Description: T cells were activated with anti-CD3 antibody. n=5 healthy donors for each group.
Primary human PBMC were isolated were isolated by density centrifugation using Ficoll from heparinized venous blood of HIV-1-seronegative adult donors and seeded into 24-well plates at a concentration of 1×10^6 cells/mL/well. Freshly isolated PBMC were treated with 5 ng/mL recombinant IFN-α (PBL Interferon Source; Piscataway, N.J.) in the presence or absence of monoclonal anti-CD3 antibody (OKT3). Anti-CD3 was immobilized by coating plates with 0.1 μg/mL in PBS for 2 hours. Following a 3 day incubation period, PBMC were harvested and transferred to 24-well plates that were uncoated or coated with 5 μg/mL monoclonal anti-CD95 antibody (IgM, CH11; Immunotech, Brea, Calif.) for 14 hour at 37° C. in 5% CO2. Cells were subsequently harvested, counted and stained for flow cytometry analysis. The following combinations of mAb were used to identify CD4+ and CD8+ T cell subpopulations: anti-CD3-PE/anti-CD4-APC/anti-CD8-PerCP; and for the apoptosis studies: Annexin V-Cy5.5 (eBioscience, San Diego, Calif.). One million cells were stained as previously described (Mueller Y M et al., 2001, Immunity. 15:871-882) with the combination of antibodies in HBSS (Cellgro, Herndon, Va.), 3% FBS, 0.02% NaN3 for 15 min on ice, washed twice with HBSS, 3% FBS, 0.02% NaN3 and fixed with 1% paraformaldehyde. […]

For IFN-α, the “CD95/Fas-induced apoptosis of T cells (in words)” value was “increase”.
